The text below walks through data of patent US8466153B2, “Piperidinylamino-pyridazines and their use as fast dissociating dopamine 2 receptor antagonists” (Janssen Pharmaceutica N.V., priority 2006, dated 2013).

In general, melting point refers to the temperature, or range, at which the solid turns liquid. A word on the IC50: it is the midpoint of a concentration-inhibition curve.

Read-outs that look alike come from different tables or passages of the source.

For data set [1], the target named is T1, human D2L receptor (Homo sapiens, UniProt P14416).
T1 construct: expressed in transfected cells
T1 sequence (P14416 whole entry): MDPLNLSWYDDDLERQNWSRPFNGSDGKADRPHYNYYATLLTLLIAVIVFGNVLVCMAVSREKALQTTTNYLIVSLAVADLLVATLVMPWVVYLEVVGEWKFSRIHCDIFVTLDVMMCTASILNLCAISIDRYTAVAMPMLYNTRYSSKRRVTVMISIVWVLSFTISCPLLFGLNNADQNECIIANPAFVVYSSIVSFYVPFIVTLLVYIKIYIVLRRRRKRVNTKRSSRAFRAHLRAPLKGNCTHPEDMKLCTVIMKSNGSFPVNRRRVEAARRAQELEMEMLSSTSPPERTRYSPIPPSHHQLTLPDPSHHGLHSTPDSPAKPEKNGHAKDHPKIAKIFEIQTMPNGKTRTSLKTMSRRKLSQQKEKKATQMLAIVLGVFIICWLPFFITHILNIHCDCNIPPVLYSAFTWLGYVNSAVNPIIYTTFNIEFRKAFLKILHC
The data set can be described thus: Fast dissociation (indirect [3H]spiperone filter assay). Type of data set: binding. The conditions noted are these: compound at 4 times its IC50 pre-incubated 1 h at 25° C.; [3H]spiperone 1 nM on filter for 5 minutes. Here is the method: Compounds were first screened for their D2 affinity in a binding assay using [^3H]spiperone and human D2L receptor cell membranes.
Immediately after, the vacuum was released. 0.4 ml of pre-warmed buffer (25° C.) containing 1 nM [^3H]spiperone was added on the filter for 5 minutes. The incubation was stopped by initiating the vacuum and immediate rinsing with 2×5 ml of ice-cold buffer. The filter-bound radioactivity was measured in a liquid scintillation spectrometer. The principle of the assay is based on the assumption that the faster a compound dissociates from the D2 receptor, the faster [^3H]spiperone binds to the D2 receptor.

Data set [2] concerns Apomorphine-induced agitation, stereotypy in rats. Nature of the data set: Inhibition of the apomorphine induced agitation test in rats. To be noted: Rattus norvegicus, 0.5 h, apomorphine 1.0 mg/kg i.v. at 30 min, male Wiga Wistar rats. The format is in vivo. The protocol: Male Wiga Wistar rats (180-280 g) were administered test compound (sc: subcutaneously; po: orally; n=3 per dose; dose=0.16, 0.63 and 2.5 mg/kg) or solvent and then challenged with apomorphine (1.0 mg/kg, i.v.) at 30 min. The effects of the test compound on the behavioral changes were evaluated according to all-or-none criteria based on the distribution of results in a large series of control data obtained in solvent-pretreated rats.
Apomorphine (1.0 mg/kg, i.v.)-induced agitation, stereotypy (compulsive sniffing, licking, chewing), was scored every 5 min over the first hour after injection of apomorphine. The score system was: (3) pronounced, (2) moderate, (1) slight, and (0) absent. […] The table below gives the lowest active dose at which 3 out of 3 rats tested met one of the criteria for drug-induced inhibition of agitation.

For data set [3], the target named is T2, human Dopamine D2L receptor (Homo sapiens, UniProt P14416).
T2 construct: expressed in transfected cells; host or cells: CHO cells
T2 sequence (P14416 whole entry): as above
Nature of the data set: In vitro binding affinity for human D2L receptor ([3H]spiperone competition). The conditions noted are these: membranes of human D2L receptor-transfected CHO cells, 30 min, 37° C. An excerpt: In order to find antipsychotic compounds active against positive symptoms and having an improved safety profile (low EPS incidence and no metabolic disorders), we have screened for compounds selectively interacting with the dopamine D2 receptor and dissociating fast from this receptor. Compounds were first screened for their D2 affinity in a binding assay using [^3H]spiperone and human D2L receptor cell membranes.
Frozen membranes of human Dopamine D2L receptor-transfected CHO cells were thawed, briefly homogenised using an Ultra-Turrax T25 homogeniser and diluted in Tris-HCl assay buffer containing NaCl, CaCl2, MgCl2, KCl (50, 120, 2, 1, and 5 mM respectively, adjusted to pH 7.7 with HCl) to an appropriate protein concentration optimised for specific and non-specific binding. Radioligand [^3H]Spiperone (NEN, specific activity ˜70 Ci/mmol) was diluted in assay buffer at a concentration of 2 nmol/L. Prepared radioligand (50 μl), along with 50 μl of either the 10% DMSO control, Butaclamol (10^−6 mol/l final concentration), or compound of interest, was then incubated (30 min, 37° C.) with 400 μl of the prepared membrane solution. Membrane-bound activity was filtered through a Packard Filtermate harvester onto GF/B Unifilterplates and washed with ice-cold Tris-HCl buffer (50 mM; pH 7.7; 6×0.5 ml). Filters were allowed to dry before adding scintillation fluid and counting in a Topcount scintillation counter. Percentage specific bound and competition binding curves were calculated using S-Plus software (Insightful).

The subject of data set [4] is panel of more than 50 common G-protein coupled receptors (CEREP). The data set can be described thus: Screen in a panel of more than 50 common G-protein coupled receptors (CEREP). The format is binding. To be noted: panel of more than 50 GPCRs. The text has this: Selected compounds E15, E16, E17 and E18 were further screened in a panel of more than 50 common G-protein coupled receptors (CEREP) and found to have a clean profile, that is to have low affinity for the tested receptors.

`N#Cc1ccc(NC2CCN(Cc3cc(F)c(F)c(F)c3)CC2)nn1` [Example E18, 6-[1-(3,4,5-Trifluoro-benzyl)-piperidin-4-ylamino]-pyridazine-3-carbonitrile] registered a melting point of 185 °C. Moreover, the “% Dissociation” value in data set [1] stood at 95%. Also, the minimal effective dose in data set [2] (po, orally, read-out: po Dose: lowest active dose at which 3 out of 3 rats met a criterion for inhibition of agitation) is 1.25 mg/kg. For the same compound, in data set [2] (sc, subcutaneously, read-out: sc Dose: lowest active dose at which 3 out of 3 rats met a criterion for inhibition of agitation), the minimal effective dose was found to be 0.63 mg/kg. The compound also had an IC50 in data set [3] of 5.75 µM. Further, the “affinity profile for the tested receptors” value in data set [4] is given as “low affinity”.
